assay: Osmotic pressure of saturated solutions by vapor pressure osmometer; assay type: physicochemical; settings: Hewlett Packard vapor pressure osmometer; ±10%
Procedure: The osmotic solute may be initially present in excess and it can be in any physical form that is compatible with the proton pump inhibitor, the dosage form, and the osmopolymer. […] In the table, the osmotic pressure π, is in atmospheres, atm. The osmotic pressure is measured in a commercially available osmometer that measures the vapor pressure difference between pure water and the solution to be analyzed and, according to standard thermodynamic principles, the vapor pressure ratio is converted into osmotic pressure difference. […] The osmometer used for the present measurements is identified as Model 320B, Vapor Pressure Osmometer, manufactured by the Hewlett Packard Co., Avondale, Pa.

Compound | π value (osmotic pressure)
[Cl-].[Na+] [Sodium Chloride] | 345 atm

same assay, conditions: saturated solutions at 37° C., in water

Compound | Osmotic Pressure in atm.
[Cl-].[Na+] [Sodium Chloride] | 356 atm
O.O.O.O.O.O.O.O.O.O.O.O.O=P([O-])([O-])[O-].[Na+].[Na+].[Na+] [Sodium Phosphate Tribasic 12 H2O] | 36 atm
O=S(=O)([O-])[O-].[K+].[K+] [Potassium Sulfate] | 39 atm
[Cl-].[K+] [Potassium Chloride] | 245 atm
O.O.O.O.O.O.O.O.O.O.O.O.O=P([O-])([O-])O.[Na+].[Na+] [Sodium Phosphate Dibasic 12 H2O] | 31 atm
O=P([O-])([O-])O.[Na+].[Na+] [Sodium Phosphate Dibasic Anhydrous] | 29 atm
Sodium Phosphate Monobasic H2O | 28 atm
OC[C@@H](O)[C@@H](O)[C@H](O)[C@H](O)CO [Mannitol] | 38 atm
O.O.O.O.O.O.O.O=P([O-])([O-])O.[Na+].[Na+] [Sodium Phosphate Dibasic 7 H2O] | 31 atm
O=C(CO)[C@@H](O)[C@H](O)[C@H](O)CO [Fructose] | 355 atm
